Laboratory results: patent US12195427B2, “MASP-2 inhibitors and methods of use” (priority 2018, dated 2025)

Biological target: MASP-2 CCP2-SP (Homo sapiens (Human), UniProt O00187)
Assay: MASP-2 co-crystallization, X-ray crystallography and structure analysis (H-bonds, van der Waals contacts);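 for Ligand-pharmacophore element distance, pharmacophore element C2: distance from averaged pharmacophore element to bound ligand; missing value means element absent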;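 for Ligand-pharmacophore element distance, pharmacophore element C3: distance from averaged pharmacophore element to bound ligand; missing value means element absent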;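 for Ligand-pharmacophore element distance, pharmacophore element C4: distance from averaged pharmacophore element to bound ligand; missing value means element absent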;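 for Ligand-pharmacophore element distance, pharmacophore element C5: distance from averaged pharmacophore element to bound ligand; missing value means element absent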
Design: van der Waals contact distance, MASP-2 HIS 483 atom CD2 / van der Waals contact distance, MASP-2 HIS 483 atom NE2 / van der Waals contact distance, SER 654 C to compound atom / van der Waals contact distance, SER 654 O to compound atom / van der Waals contact distance, TRP 655 C to compound atom / van der Waals contact distance, MASP-2 GLY 528 atom CA / van der Waals contact distance TRP 655 atom CZ3 / van der Waals contact distance TRP 655 atom N / van der Waals contact distance TRP 655 atom CE3 / van der Waals contact distance GLY 656 atom C / van der Waals contact distance GLY 656 atom CA / van der Waals contact distance GLY 656 atom O / van der Waals contact distance, MASP-2 TYR 607 atom CD1 / van der Waals contact distance, MASP-2 PRO 606 atom O / d(C3,CA1) / d(CA1,N1)2 / d(H4,O1) / d(H4,O2) / d(O1,O2) / d(CA1,O2) / d(CA6,O1) / d(CA6,O2) / d(CA1,C5) / d(O2,H3) / d(N2,C2) / d(CA5,N2) / d(N2,C4) / d(N2,C6) / d(N2,CA3) / d(N2,O3) / d(O4,H2): unit not given beside the values
Conditions: for Ligand-pharmacophore element distance, pharmacophore element C2 / Ligand-pharmacophore element distance, pharmacophore element C3 / Ligand-pharmacophore element distance, pharmacophore element C4 / Ligand-pharmacophore element distance, pharmacophore element C5 / Ligand-pharmacophore element distance, pharmacophore element C6 / Ligand-pharmacophore element distance, pharmacophore element C7 / Ligand-pharmacophore element distance, pharmacophore element CA1 / Ligand-pharmacophore element distance, pharmacophore element CA2 / Ligand-pharmacophore element distance, pharmacophore element CA3 / Ligand-pharmacophore element distance, pharmacophore element CA4 / Ligand-pharmacophore element distance, pharmacophore element CA5 / Ligand-pharmacophore element distance, pharmacophore element CA6: Table A4-1; for d(CA1,C5) / d(CA1,O1) / d(CA1,O2) / d(CA1,O4) / d(H4,O1) / d(H4,O2) / d(O1,O2) / d(O4,H2): Table A5-1 pharmacophore: distance between elements, S2/S1 region; for d(N2,C2) / d(N2,CA2) / d(O2,H3) / d(O2,N2): Table A5-2 pharmacophore distance, S3/S4 region; for a(C5, CA1, O1) / a(CA1, O1, O2) / a(CA1, O4, H2) / a(O1, CA1, O4) / a(O1, O2, H4): Table A6-1 pharmacophore angle; for a(O1, O2, H3) / a(O1, O2, N2) / a(O2, N2, C2) / a(O2, N2, CA2): Table A6-2 pharmacophore angle; for Pharmacophore torsion angle a(C5, CA1, O1, H4) / Pharmacophore torsion angle a(H4, O1, O2, H3) / Pharmacophore torsion angle a(H4, O1, O2, N2) / Pharmacophore torsion angle a(O1, H4, O2, CA1) / Pharmacophore torsion angle a(O1, O2, N2, C2): Table A7-1; for Pharmacophore torsion angle a(C5, CA1, O1, H4) / Pharmacophore torsion angle a(H4, O1, O2, H3) / Pharmacophore torsion angle a(H4, O1, O2, N2) / Pharmacophore torsion angle a(O1, H4, O2, CA1) / Pharmacophore torsion angle a(O1, O2, N2, C2) / Pharmacophore torsion angle a(O1, O2, N2, CA2): between pharmacophore elements of the bound compound; for Pharmacophore torsion angle a(O1, O2, N2, CA2): Table A7-2
In short: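 Inhibitor complexes were obtained by soaking crystals of E. coli-derived human MASP-2 CCP2-SP. Synchrotron diffraction at 1.0 wavelength, molecular replacement and partial refinement gave the models; one pose per ligand was chosen for contact analysis.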

[1] = Table A8-6, nearest protein atom in cell to the left

Chain of MASP-2 CCP2-SP (O00187 445-686): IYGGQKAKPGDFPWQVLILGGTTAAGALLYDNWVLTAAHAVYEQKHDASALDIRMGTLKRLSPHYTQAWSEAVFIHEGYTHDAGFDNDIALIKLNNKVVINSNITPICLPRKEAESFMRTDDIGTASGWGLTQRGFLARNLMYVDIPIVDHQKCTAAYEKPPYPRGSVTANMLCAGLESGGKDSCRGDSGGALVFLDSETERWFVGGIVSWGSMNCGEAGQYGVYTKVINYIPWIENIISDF
Chain of MASP-2 CCP2-SP (O00187 364-432 partner): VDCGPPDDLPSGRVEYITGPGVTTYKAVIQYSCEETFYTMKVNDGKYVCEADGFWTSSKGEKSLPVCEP

C[C@H](NC(=O)[C@H]1C[C@H](c2ccccc2)CN1)C(=O)NCc1ccc(C(=N)N)cc1 [compound 1036]
H-bond distance to MASP-2 ASP 627 atom OD2 (Table A1 (H-Bonds), ASP 627 OD2): 2.96
H-bond distance to MASP-2 GLY 656 atom N (Table A1 (H-Bonds), GLY 656 N): 3.22
H-bond distance to MASP-2 SER 628 atom O (Table A1 (H-Bonds), SER 628 O): 2.9
H-bond distance to MASP-2 SER 657 atom O (Table A1 (H-Bonds), SER 657 O): 2.93
van der Waals contact distance, MASP-2 HIS 483 atom CD2 (Table A2-1): 3.81
van der Waals contact distance, MASP-2 PHE 529 atom CE2 (Table A2-3): 3.72
van der Waals contact distance TRP 655 atom N (Table A2-13, MASP-2 TRP 655 N): 3.58
van der Waals contact distance GLY 656 atom O (Table A2-14, MASP-2 GLY 656 O): 3.55
van der Waals contact distance SER 657 atom C (Table A2-14, MASP-2 SER 657 C, columns c12-c13 (inferred)): 3.57

C[C@H](NC(=O)[C@H]1C[C@@H](c2ccccc2)CCN1)C(=O)NCc1cc(Cl)ccc1O.Cl [1078_14]
Ligand-pharmacophore element distance, pharmacophore element C2: 0.74
Ligand-pharmacophore element distance, pharmacophore element C3: 0
Ligand-pharmacophore element distance, pharmacophore element C4: 0
Ligand-pharmacophore element distance, pharmacophore element C5: 0.47
Ligand-pharmacophore element distance, pharmacophore element C6: 0
Ligand-pharmacophore element distance, pharmacophore element C7: 0
Ligand-pharmacophore element distance, pharmacophore element CA1: 1.61
Ligand-pharmacophore element distance, pharmacophore element CA2: 0.8
Ligand-pharmacophore element distance, pharmacophore element CA3: 0
Ligand-pharmacophore element distance, pharmacophore element CA4: 0
Ligand-pharmacophore element distance, pharmacophore element CA5: 0
Ligand-pharmacophore element distance, pharmacophore element CA6: 0
d(CA1,C5): 3.13
d(CA1,O1): 4.46
d(CA1,O2): 4.47
d(CA1,O4): 2.75
d(H4,O1): 2.48
d(H4,O2): 2.59
d(O1,O2): 2.91
d(O4,H2): 0.97
d(N2,C2): 1.45
d(N2,CA2): 5.69
d(O2,H3): 2.58
d(O2,N2): 2.77
a(C5, CA1, O1): 159.36
a(CA1, O1, O2): 109.29
a(CA1, O4, H2): 126.58
a(O1, CA1, O4): 70.42
a(O1, O2, H4): 109.80
a(O1, O2, H3): 144.55
a(O1, O2, N2): 148.03
a(O2, N2, C2): 129.57
a(O2, N2, CA2): 155.65
Pharmacophore torsion angle a(C5, CA1, O1, H4): 20.44
Pharmacophore torsion angle a(H4, O1, O2, H3): −134.39
Pharmacophore torsion angle a(H4, O1, O2, N2): −121.21
Pharmacophore torsion angle a(O1, H4, O2, CA1): −62.09
Pharmacophore torsion angle a(O1, O2, N2, C2): 126.74
Pharmacophore torsion angle a(O1, O2, N2, CA2): 134.23

C[C@H](NC(=O)[C@H]1C[C@@H](c2ccccc2)CCN1)C(=O)NCc1cc(Cl)ccc1O.Cl [1078_9]
Ligand-pharmacophore element distance, pharmacophore element C2: 0.67
Ligand-pharmacophore element distance, pharmacophore element C3: 0
Ligand-pharmacophore element distance, pharmacophore element C4: 0
Ligand-pharmacophore element distance, pharmacophore element C5: 0.46
Ligand-pharmacophore element distance, pharmacophore element C6: 0
Ligand-pharmacophore element distance, pharmacophore element C7: 0
Ligand-pharmacophore element distance, pharmacophore element CA1: 1.62
Ligand-pharmacophore element distance, pharmacophore element CA2: 0.56
Ligand-pharmacophore element distance, pharmacophore element CA3: 0
Ligand-pharmacophore element distance, pharmacophore element CA4: 0
Ligand-pharmacophore element distance, pharmacophore element CA5: 0
Ligand-pharmacophore element distance, pharmacophore element CA6: 0
d(CA1,C5): 3.11
d(CA1,O1): 4.31
d(CA1,O2): 4.77
d(CA1,O4): 2.74
d(H4,O1): 2.21
d(H4,O2): 2.49
d(O1,O2): 3.11
d(O4,H2): 0.98
d(N2,C2): 1.46
d(N2,CA2): 5.71
d(O2,H3): 3.06
d(O2,N2): 2.89
a(C5, CA1, O1): 161.68
a(CA1, O1, O2): 117.85
a(CA1, O4, H2): 128.05
a(O1, CA1, O4): 66.67
a(O1, O2, H4): 97.24
a(O1, O2, H3): 142.04
a(O1, O2, N2): 146.14
a(O2, N2, C2): 119.45
a(O2, N2, CA2): 153.36
Pharmacophore torsion angle a(C5, CA1, O1, H4): 14.92
Pharmacophore torsion angle a(H4, O1, O2, H3): −116.62
Pharmacophore torsion angle a(H4, O1, O2, N2): −110.81
Pharmacophore torsion angle a(O1, H4, O2, CA1): −50.72
Pharmacophore torsion angle a(O1, O2, N2, C2): 144.64
Pharmacophore torsion angle a(O1, O2, N2, CA2): 146.06

C[C@H](NC(=O)[C@H]1C[C@@H](c2ccccc2)CCN1)C(=O)NCc1cc(Cl)ccc1O.Cl [1078_1]
Ligand-pharmacophore element distance, pharmacophore element C2: 0.69
Ligand-pharmacophore element distance, pharmacophore element C3: 0
Ligand-pharmacophore element distance, pharmacophore element C4: 0
Ligand-pharmacophore element distance, pharmacophore element C5: 0.4
Ligand-pharmacophore element distance, pharmacophore element C6: 0
Ligand-pharmacophore element distance, pharmacophore element C7: 0
Ligand-pharmacophore element distance, pharmacophore element CA1: 1.58
Ligand-pharmacophore element distance, pharmacophore element CA2: 0.48
Ligand-pharmacophore element distance, pharmacophore element CA3: 0
Ligand-pharmacophore element distance, pharmacophore element CA4: 0
Ligand-pharmacophore element distance, pharmacophore element CA5: 0
Ligand-pharmacophore element distance, pharmacophore element CA6: 0
d(CA1,C5): 3.12
d(CA1,O1): 4.56
d(CA1,O2): 4.72
d(CA1,O4): 2.75
d(H4,O1): 2.29
d(H4,O2): 2.61
d(O1,O2): 3.05
d(O4,H2): 0.97
d(N2,C2): 1.48
d(N2,CA2): 5.74
d(O2,H3): 2.93
d(O2,N2): 2.77
a(C5, CA1, O1): 160.22
a(CA1, O1, O2): 111.94
a(CA1, O4, H2): 126.79
a(O1, CA1, O4): 68.03
a(O1, O2, H4): 103.21
a(O1, O2, H3): 141.96
a(O1, O2, N2): 145.93
a(O2, N2, C2): 121.70
a(O2, N2, CA2): 154.68
Pharmacophore torsion angle a(C5, CA1, O1, H4): 25.08
Pharmacophore torsion angle a(H4, O1, O2, H3): −119.94
Pharmacophore torsion angle a(H4, O1, O2, N2): −112.97
Pharmacophore torsion angle a(O1, H4, O2, CA1): −60.12
Pharmacophore torsion angle a(O1, O2, N2, C2): 138.25
Pharmacophore torsion angle a(O1, O2, N2, CA2): 140.46
Pharmacophore protein distance to MET_658 (first MET_658 column) (Table A8-6, 6th residue column, nearest protein atom in cell to the left): 2.97
Pharmacophore protein distance to MET_658 (second MET_658 column) (Table A8-6, 9th residue column, nearest protein atom in cell to the left): 3.50
Pharmacophore protein distance to GLY_528 [1]: 3.66
Pharmacophore protein distance to PHE_529 [1]: 3.30
Pharmacophore protein distance to PRO_608 [1]: 3.85
Pharmacophore protein distance to SER_611 [1]: 2.41
Pharmacophore protein distance to TRP_655 (Table A8-6, pharmacophore elements C6, CA3, O3, H1, nearest protein atom in cell to the left): 3.68
